Article PMC5382265, “Macrocycle peptides delineate locked-open inhibition mechanism for microorganism phosphoglycerate mutases” (Nature Communications, 2017)
Where two headings read alike, the source gives them in different places. Positions of bridges follow the written chain, without caps; N, C: chain ends. Non-standard residues stand in square brackets, D forms with d. Residues, ends and D or L forms follow the SMILES beside them.

Assays:
[1] = target: T1, C. elegans iPGM (Caenorhabditis elegans, UniProt G5EFZ1); assay: PGM enzyme-coupled bioluminescent end point assay (Kinase-Glo Plus); assay type: biochemical
T1 sequence (G5EFZ1 1-539): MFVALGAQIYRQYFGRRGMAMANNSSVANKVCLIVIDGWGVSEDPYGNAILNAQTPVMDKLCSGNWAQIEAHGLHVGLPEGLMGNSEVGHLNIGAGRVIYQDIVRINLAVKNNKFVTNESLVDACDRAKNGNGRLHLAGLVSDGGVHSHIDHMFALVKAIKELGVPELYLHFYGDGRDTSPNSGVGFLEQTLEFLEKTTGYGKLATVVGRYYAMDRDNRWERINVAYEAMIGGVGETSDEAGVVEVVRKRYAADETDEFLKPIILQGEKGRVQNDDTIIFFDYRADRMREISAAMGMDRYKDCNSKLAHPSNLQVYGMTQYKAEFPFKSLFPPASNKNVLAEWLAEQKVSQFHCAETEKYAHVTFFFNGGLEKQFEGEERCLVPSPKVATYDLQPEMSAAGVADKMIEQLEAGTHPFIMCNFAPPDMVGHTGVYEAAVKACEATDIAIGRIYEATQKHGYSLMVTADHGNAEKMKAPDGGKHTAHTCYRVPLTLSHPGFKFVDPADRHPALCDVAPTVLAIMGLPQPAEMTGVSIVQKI

[2] = target: B. malayi iPGM (Brugia malayi, UniProt Q4VWF8); assay: biochemical
[3] = target: O. volvulus iPGM (Onchocerca volvulus, UniProt I6LDA6); assay: biochemical
[4] = target: E. coli iPGM (Escherichia coli, UniProt P37689); assay: biochemical
[5] = test system: iPGM orthologues and dPGM isozymes; assay type: biochemical
[6] = pIC50, apparent C. elegans iPGM
[7] = pIC50, apparent O. volvulus iPGM

Chain of B. malayi iPGM (Q4VWF8 whole entry, looked up): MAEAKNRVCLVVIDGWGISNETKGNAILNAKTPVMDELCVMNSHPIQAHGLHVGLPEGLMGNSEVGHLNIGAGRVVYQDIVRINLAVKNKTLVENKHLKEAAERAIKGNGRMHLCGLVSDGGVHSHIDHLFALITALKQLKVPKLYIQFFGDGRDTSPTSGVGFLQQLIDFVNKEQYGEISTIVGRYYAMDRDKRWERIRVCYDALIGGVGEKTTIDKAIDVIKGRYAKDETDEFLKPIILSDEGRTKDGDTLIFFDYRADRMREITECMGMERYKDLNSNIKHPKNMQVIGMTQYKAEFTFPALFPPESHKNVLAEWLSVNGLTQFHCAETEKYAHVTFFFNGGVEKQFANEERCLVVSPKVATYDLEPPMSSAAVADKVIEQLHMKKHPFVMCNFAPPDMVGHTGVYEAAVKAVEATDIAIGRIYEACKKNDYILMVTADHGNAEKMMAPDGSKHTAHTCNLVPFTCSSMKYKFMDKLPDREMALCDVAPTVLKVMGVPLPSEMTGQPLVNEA
Chain of E. coli iPGM (P37689 whole entry, looked up): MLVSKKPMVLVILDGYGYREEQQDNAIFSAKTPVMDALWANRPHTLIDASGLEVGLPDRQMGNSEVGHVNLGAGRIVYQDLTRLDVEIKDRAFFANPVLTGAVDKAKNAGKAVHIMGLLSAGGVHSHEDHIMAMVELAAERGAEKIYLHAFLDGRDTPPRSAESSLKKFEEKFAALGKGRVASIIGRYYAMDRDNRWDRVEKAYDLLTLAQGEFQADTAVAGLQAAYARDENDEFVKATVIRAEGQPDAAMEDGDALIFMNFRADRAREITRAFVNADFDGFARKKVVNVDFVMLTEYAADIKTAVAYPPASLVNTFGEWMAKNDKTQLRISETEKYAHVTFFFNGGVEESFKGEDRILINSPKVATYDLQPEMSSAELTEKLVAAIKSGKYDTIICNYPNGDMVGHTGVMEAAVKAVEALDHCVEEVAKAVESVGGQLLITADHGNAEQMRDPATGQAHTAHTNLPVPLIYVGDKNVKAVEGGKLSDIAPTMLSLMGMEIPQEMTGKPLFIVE
Chain of O. volvulus iPGM (I6LDA6 whole entry, looked up): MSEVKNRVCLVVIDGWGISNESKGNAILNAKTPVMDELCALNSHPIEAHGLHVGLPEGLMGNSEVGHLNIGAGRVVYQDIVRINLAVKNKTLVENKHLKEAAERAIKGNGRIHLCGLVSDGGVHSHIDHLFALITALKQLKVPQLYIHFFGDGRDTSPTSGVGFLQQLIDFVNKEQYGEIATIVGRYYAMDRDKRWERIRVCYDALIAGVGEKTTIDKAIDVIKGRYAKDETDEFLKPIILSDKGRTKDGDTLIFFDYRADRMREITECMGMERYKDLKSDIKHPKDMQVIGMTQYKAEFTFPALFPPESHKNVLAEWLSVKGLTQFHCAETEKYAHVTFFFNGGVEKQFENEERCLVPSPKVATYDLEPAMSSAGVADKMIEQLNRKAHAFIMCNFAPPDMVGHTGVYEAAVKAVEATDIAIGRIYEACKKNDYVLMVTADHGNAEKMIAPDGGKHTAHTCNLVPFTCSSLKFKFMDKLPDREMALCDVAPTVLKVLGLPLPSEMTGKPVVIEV

Molecule	IC50 [1, 6] [nM]	IC50 ([2]; pIC50, apparent B. malayi iPGM) [nM]	IC50 ([4]; pIC50, apparent E. coli iPGM) [nM]	IC50 ([1]; pIC50 C. elegans iPGM) [nM]	IC50 ([2]; pIC50 B. malayi iPGM) [nM]	IC50 ([4]; pIC50 E. coli iPGM) [nM]	also measured
CC[C@H](C)[C@@H]1NC(=O)[C@H](CCC(=O)O)NC(=O)[C@@H]2CCCN2C(=O)[C@H](C)NC(=O)[C@H](CC(N)=O)NC(=O)[C@@H]2CCCN2C(=O)[C@H](Cc2c[nH]c3ccccc23)NC(=O)[C@H](CO)NC(=O)[C@@H](Cc2ccc(O)cc2)NC(=O)CSC[C@@H](C(=O)N[C@@H](CS)C(=O)NCC(N)=O)NC(=O)[C@H](CCCCN)NC(=O)[C@H](Cc2c[nH]c3ccccc23)NC1=O [Bm-1] ({CH2CO}-[dY]SWPNAPEIWKCCG-NH2; thioether N-12)	5010	1290	4900	–	–	–	IC50 [3, 7]: 1320 nM
CC[C@H](C)[C@@H]1NC(=O)[C@H](CO)NC(=O)[C@H](CCCNC(=N)N)NC(=O)[C@H](CC(N)=O)NC(=O)[C@H](CCC(N)=O)NC(=O)[C@@H](Cc2ccc(O)cc2)NC(=O)CSC[C@@H](C(=O)NCC(N)=O)NC(=O)[C@H](CS)NC(=O)CNC(=O)[C@H](Cc2ccc(O)cc2)NC(=O)[C@H](CC(C)C)NC(=O)[C@H](Cc2c[nH]c3ccccc23)NC1=O [Bm-3] ({CH2CO}-[dY]QNRSIWLYGCCG-NH2; thioether N-12)	–	–	–	–	–	–	pIC50, apparent C. elegans iPGM [1]: 5.05; pIC50, apparent E. coli iPGM [4]: 5.03
CC(C)C[C@@H]1NC(=O)[C@@H](Cc2ccc(O)cc2)NC(=O)CSC[C@@H](C(=O)N[C@@H](CC(N)=O)C(=O)N[C@H](C(=O)N[C@@H](CS)C(=O)NCC(N)=O)[C@@H](C)O)NC(=O)[C@H](CC(N)=O)NC(=O)[C@@H]2CCCN2C(=O)[C@H](Cc2c[nH]c3ccccc23)NC(=O)[C@H](CCC(=O)O)NC1=O [Bm-4] ({CH2CO}-[dY]LEWPNCNTCG-NH2; thioether N-7)	2450	575	2750	–	–	–	IC50 [3, 7]: 794 nM
CC(C)C[C@@H]1NC(=O)[C@@H](Cc2ccc(O)cc2)NC(=O)CSC[C@@H](C(=O)N[C@@H](CO)C(=O)N[C@H](C(=O)N[C@@H](CS)C(=O)NCC(N)=O)[C@@H](C)O)NC(=O)[C@H](CC(N)=O)NC(=O)[C@@H]2CCCN2C(=O)[C@H](Cc2c[nH]c3ccccc23)NC(=O)[C@H](CC(=O)O)NC1=O [Bm-5] ({CH2CO}-[dY]LDWPNCSTCG-NH2; thioether N-7)	2510	692	2880	–	–	–	IC50 [3, 7]: 1020 nM
C[C@@H](O)[C@H](NC(=O)[C@H](CO)NC(=O)[C@@H]1CSCC(=O)N[C@H](Cc2ccc(O)cc2)C(=O)N2CCC[C@H]2C(=O)N[C@@H](CCC(=O)O)C(=O)N[C@@H](Cc2c[nH]c3ccccc23)C(=O)N2CCC[C@H]2C(=O)N[C@@H](CC(N)=O)C(=O)N1)C(=O)N[C@@H](CS)C(=O)NCC(N)=O [Bm-6] ({CH2CO}-[dY]PEWPNCSTCG-NH2; thioether N-7)	2630	692	2820	–	–	–	IC50 [3, 7]: 832 nM
CC(C)[C@@H]1NC(=O)[C@H](C)NC(=O)[C@@H](Cc2ccc(O)cc2)NC(=O)CSC[C@@H](C(=O)N[C@@H](CCCNC(=N)N)C(=O)N[C@H](C(=O)N[C@@H](CS)C(=O)NCC(N)=O)[C@@H](C)O)NC(=O)[C@H](CC(N)=O)NC(=O)[C@@H]2CCCN2C(=O)[C@H](Cc2c[nH]c3ccccc23)NC1=O [Bm-7] ({CH2CO}-[dY]AVWPNCRTCG-NH2; thioether N-7)	7410	5250	7590	–	–	–	IC50 [3, 7]: 4270 nM
CC(C)C[C@H](NC(=O)[C@H](Cc1ccc(O)cc1)NC(=O)[C@@H]1CSCC(=O)N[C@H](Cc2ccc(O)cc2)C(=O)N[C@@H](CC(=O)O)C(=O)N[C@@H](Cc2ccc(O)cc2)C(=O)N2CCC[C@H]2C(=O)NCC(=O)N[C@@H](CC(=O)O)C(=O)N[C@@H](Cc2c[nH]cn2)C(=O)N1)C(=O)N[C@@H](Cc1ccc(O)cc1)C(=O)NCC(=O)N[C@H](C(=O)N[C@@H](CS)C(=O)NCC(N)=O)[C@@H](C)O [Ce-1]	3.98	12	4.17	–	–	–	IC50 ([3]; pIC50, M O. volvulus iPGM): 24.5 nM
CC(C)C[C@H](NC(=O)[C@H](Cc1ccc(O)cc1)NC(=O)[C@@H]1CSCC(=O)N[C@H](Cc2ccc(O)cc2)C(=O)N[C@@H](CC(=O)O)C(=O)N[C@@H](Cc2ccc(O)cc2)C(=O)N2CCC[C@H]2C(=O)NCC(=O)N[C@@H](CC(=O)O)C(=O)N[C@@H](Cc2ccc(O)cc2)C(=O)N1)C(=O)N[C@@H](Cc1ccc(O)cc1)C(=O)NCC(=O)N[C@H](C(=O)N[C@@H](CO)C(=O)NCC(N)=O)[C@@H](C)O [Ce-2S]	–	–	–	8.32	525	10	IC50 [1]: ~10 nM; IC50 ([1]; pIC50, M C. elegans iPGM): 12 nM; IC50 ([2]; pIC50, M B. malayi iPGM): 407 nM; IC50 ([3]; pIC50, M O. volvulus iPGM): 447 nM; IC50 ([3]; pIC50 O. volvulus iPGM): 1020 nM; IC50 ([4]; IC50): ~10 nM
CC(C)C[C@H](NC(=O)[C@H](Cc1ccc(O)cc1)NC(=O)[C@@H]1CSCC(=O)N[C@H](Cc2ccc(O)cc2)C(=O)N[C@@H](CC(=O)O)C(=O)N[C@@H](Cc2ccc(O)cc2)C(=O)N2CCC[C@H]2C(=O)NCC(=O)N[C@@H](CC(=O)O)C(=O)N[C@@H](Cc2ccc(O)cc2)C(=O)N1)C(=O)N[C@@H](Cc1ccc(O)cc1)C(=O)NCC(=O)N[C@H](C(=O)N[C@@H](CS)C(N)=O)[C@@H](C)O [Ce-2a]	–	–	–	0.174	0.324	0.263	IC50 ([1]; pIC50, M C. elegans iPGM): 4.07 nM; IC50 ([2]; pIC50, M B. malayi iPGM): 8.51 nM; IC50 ([3]; pIC50, M O. volvulus iPGM): 49 nM; IC50 ([3]; pIC50 O. volvulus iPGM): 0.209 nM; IC50 ([4]; pIC50, M E. coli iPGM): 3.09 nM
CC(C)C[C@H](NC(=O)[C@H](Cc1ccc(O)cc1)NC(=O)[C@@H]1CSCC(=O)N[C@H](Cc2ccc(O)cc2)C(=O)N[C@@H](CC(=O)O)C(=O)N[C@@H](Cc2ccc(O)cc2)C(=O)N2CCC[C@H]2C(=O)NCC(=O)N[C@@H](CC(=O)O)C(=O)N[C@@H](Cc2ccc(O)cc2)C(=O)N1)C(=O)N[C@@H](Cc1ccc(O)cc1)C(=O)NCC(=O)N[C@H](C(N)=O)[C@@H](C)O [Ce-2b]	–	–	–	15.8	692	10.5	IC50 ([3]; pIC50 O. volvulus iPGM): 2450 nM
CC(C)C[C@H](NC(=O)[C@H](Cc1ccc(O)cc1)NC(=O)[C@@H]1CSCC(=O)N[C@H](Cc2ccc(O)cc2)C(=O)N[C@@H](CC(=O)O)C(=O)N[C@@H](Cc2ccc(O)cc2)C(=O)N2CCC[C@H]2C(=O)NCC(=O)N[C@@H](CC(=O)O)C(=O)N[C@@H](Cc2ccc(O)cc2)C(=O)N1)C(=O)N[C@@H](Cc1ccc(O)cc1)C(=O)NCC(N)=O [Ce-2c]	–	–	–	22.9	1170	10.5	IC50 ([3]; pIC50 O. volvulus iPGM): 3890 nM
CC(C)C[C@H](NC(=O)[C@H](Cc1ccc(O)cc1)NC(=O)[C@@H]1CSCC(=O)N[C@H](Cc2ccc(O)cc2)C(=O)N[C@@H](CC(=O)O)C(=O)N[C@@H](Cc2ccc(O)cc2)C(=O)N2CCC[C@H]2C(=O)NCC(=O)N[C@@H](CC(=O)O)C(=O)N[C@@H](Cc2ccc(O)cc2)C(=O)N1)C(N)=O [Ce-2e] ({CH2CO}-[dY]DYPGDYCYL-NH2; thioether N-8)	–	–	–	69.2	2950	53.7	potency decrease [5]: ~100 fold
NC(=O)[C@H](Cc1ccc(O)cc1)NC(=O)[C@@H]1CSCC(=O)N[C@H](Cc2ccc(O)cc2)C(=O)N[C@@H](CC(=O)O)C(=O)N[C@@H](Cc2ccc(O)cc2)C(=O)N2CCC[C@H]2C(=O)NCC(=O)N[C@@H](CC(=O)O)C(=O)N[C@@H](Cc2ccc(O)cc2)C(=O)N1 [Ce-2f] ({CH2CO}-[dY]DYPGDYCY-NH2; thioether N-8)	–	–	–	51300	–	25700	–
CC[C@H](C)[C@@H]1NC(=O)[C@H](CCCNC(=N)N)NC(=O)[C@H](Cc2ccccc2)NC(=O)[C@@H]2CCCN2C(=O)[C@H](CC(N)=O)NC(=O)[C@H](C)NC(=O)[C@H](CC(C)C)NC(=O)[C@H]([C@@H](C)O)NC(=O)[C@H]([C@@H](C)CC)NC(=O)[C@H](Cc2ccc(O)cc2)NC(=O)CSC[C@@H](C(=O)NCC(N)=O)NC(=O)[C@H](Cc2c[nH]cn2)NC(=O)[C@H](CC(C)C)NC1=O [Ce-3] ({CH2CO}-YITLANPFRILHCG-NH2; thioether N-13)	–	–	537	–	–	–	IC50 [1]: 468 nM; IC50 ([3]; pIC50, M O. volvulus iPGM): 5500 nM
CC[C@H](C)[C@@H]1NC(=O)[C@H](CCCNC(=N)N)NC(=O)[C@H](Cc2ccccc2)NC(=O)[C@@H]2CCCN2C(=O)[C@H](CC(N)=O)NC(=O)[C@H](C)NC(=O)[C@H](CC(C)C)NC(=O)[C@H]([C@@H](C)O)NC(=O)[C@H]([C@@H](C)O)NC(=O)[C@H](Cc2ccc(O)cc2)NC(=O)CSC[C@@H](C(=O)NCC(N)=O)NC(=O)[C@H](Cc2c[nH]cn2)NC(=O)[C@H](CC(C)C)NC1=O [Ce-4] ({CH2CO}-YTTLANPFRILHCG-NH2; thioether N-13)	–	–	–	–	–	–	IC50 [1]: 6030 nM; IC50 ([3]; pIC50, M O. volvulus iPGM): 4270 nM
CC(=O)N[C@H](Cc1ccc(O)cc1)C(=O)N[C@@H](CC(=O)O)C(=O)N[C@@H](Cc1ccc(O)cc1)C(=O)N1CCC[C@H]1C(=O)NCC(=O)N[C@@H](CC(=O)O)C(=O)N[C@@H](Cc1ccc(O)cc1)C(=O)N[C@@H](CO)C(=O)N[C@@H](Cc1ccc(O)cc1)C(=O)N[C@@H](CC(C)C)C(=O)N[C@@H](Cc1ccc(O)cc1)C(=O)NCC(=O)N[C@H](C(=O)N[C@@H](CS)C(=O)NCC(N)=O)[C@@H](C)O [Ce-L2] (Ac-[dY]DYPGDYSYLYGTCG-NH2)	–	–	–	1150	12900	1320	–
^Ac-DYDYPGDYSYLY-NH2 [Ce-L2d, linear form of Ce-2d]	–	–	–	–	–	–	inhibitory activity on the PGM panel, in words [5]: completely inactive on all iPGMs
